Test results published in US8143221B2, “Use of ADNF polypeptides for treating peripheral neurotoxicity” (Ramot at Tel-Aviv University, priority 2005, dated 2012).
Ends that are not written are not given here.

How the values were obtained:
[1] = test system: peripheral neurotoxicity under chemotherapy including L-OHP, FA/5-FU; assay: Randomized trial with or without NAP under chemotherapy with oxaliplatin (L-OHP), FA/5-FU; format: in vivo; conditions: patients with ACRC, NAP 15 mg/45-70 kg i.v. before L-OHP, vs control group
Description: Aim of the study: Chemotherapy with L-OHP, FA, 5-FU has a high activity in advanced colorectal cancer (ACRC). The main dose-limiting toxicity of chemotherapy with L-OHP is a peripheral sensory neuropathy. In this study the patients (pts) will receive a chemotherapy with L-OHP, FA and 5-FU with or without NAP. The question is whether a reduction of side effects of neurotoxicity is seen after application of NAP.
We include 27 patients with ACRC. In arm A chemotherapy is applied with L-OHP 85 mg/m2 d1, FA 500 mg/m2 d1+d2 and 5-FU 4000 mg/m2 over 48 h continuous infusion as biweekly schedule. In arm B, 15 mg/45-70 kg NAP is given over 10 min i.v. before application of the same schedule of chemotherapy. Investigation of toxicity, neurological examination and a blood count is performed before every cycle. For a daily documentation of the side effects every patient receives a questionnaire.

[2] = test system: peripheral neurotoxicity induced by the taxane taxol; assay: Rota-rod test in taxol-treated rats; conditions: Experiment 2: rats, taxol cumulative 9 mg/kg i.p.; five days after the first taxol injection
Description: In the Rota-rod test a rodent is placed on a rotating rod. […] The time spent on the rota-rod without falling was recorded. Impaired animals fall earlier from the rota-rod.
(§3) Forty Sprague-Dawley rats (eight weeks old) were divided into four groups that received the following treatments: a) 10% Cremophor EL in Saline; b) taxol for a cumulative dose of 5.6 mg/kg; c) taxol for a cumulative dose of 5.6 mg/kg+NAP 2.5 μg/kg/Day; or d) taxol for a cumulative dose of 5.6 mg/kg+NAP 25 μg/kg/Day. The taxol was reconstituted in a vehicle of 10% Cremophor EL in Saline.
(§4) Taxol treatments were administered four times intraperitoneally (i.p.) on nonconsecutive days in a volume of 250 μl each time. NAP was administered daily on 8 consecutive days from the first day of taxol injection (with a 2 day brake on the weekend).
Rats were tested in the rota-rod and plantar test. The rota-rod test is described above and assesses muscle strength. […] Statistical differences were tested by ANOVA and by t-test.
Fifteen Sprague-Dawley Rats (seven weeks old) were randomly divided into three groups that received the following treatments: a) 10% Cremophor EL in Saline; b) taxol for a cumulative dose of 9 mg/kg; or c) taxol for a cumulative dose of 9 mg/kg+2.5 μg/kg/Day NAP. The taxol was reconstituted in a vehicle of 10% Cremophor EL in Saline. […]

[3] = test system: peripheral neurotoxicity induced by the taxane taxol; assay: Plantar test (thermal hyperalgesia) in taxol-treated rats
Description: as §3, §4
Rats were tested in the rota-rod and plantar test. […] The plantar test evaluates thermal hyperalgesia. For the plantar test, each rat was placed in a clear plastic chamber with a plastic floor and allowed a short period to acclimatize to the new environment (approximately 2-5 min). The animals were then challenged with a radiant Infrared (IR) heat source directed at the plantar surface of the hind paw from below (7371 Plantar Test, Ugo Basile). The withdrawal latency of both the ipsilateral and contralateral hind paw was evaluated. The infrared intensity was set at IR55 and the maximum length of exposure to the IR source was eighteen seconds. Statistical differences were tested by ANOVA and by t-test. […]

[4] = test system: peripheral neurotoxicity induced by the vinca alkaloid vincristine; assay: Rota-rod test in vincristine-treated rats; format: in vivo; conditions: vincristine 0.175 mg/kg i.p. alone vs saline control, P<0.01
Description: (§1) Rats (200-300 g), divided into 4 groups of 10, were injected with vincristine sulfate dissolved in saline. Stock concentration was 2 mg/ml, pH 4.5-5.2. Aliquots of the drug were diluted daily in saline to concentrations of 0.175 mg/ml and were administered i.p. at a dose of 0.175 mg/kg. NAP was prepared at 0.1 mg/1.3 ml in saline (0.9% NaCl) and about 0.1 ml was injected subcutaneously to a ˜300 g rat to achieve a dose of 25 microgram/kg (exact calculations were made based on the daily body weights). For 2.5 microgram/kg, the injection solution was diluted by 10 and again 0.1 ml was injected per rat. Treatments took place daily (5 days a week) for ˜3 weeks (20 days) with the dosage calculated on daily body weight. NAP was administered at the same time as the vincristine, in the dosage and the amount where indicated the following schedule.
(§2) Four groups were evaluated: 1) Control, saline (n=10), 2) Vincristine (i.p.) 0.175 mg/kg (n=10), 3) Vincristine (i.p.) 0.175 mg/kg+NAP (s.c.) 2.5 microgram/kg (n=10), and 4) Vincristine (i.p.) 0.175 mg/kg+NAP (s.c.) 25 microgram/kg (n=10).
After a week cessation of treatment, a final boost of vincristine was given i.p. daily for three days and NAP at 25 microgram/kg was given intranasally to group number 4 only. […] For behavioral testing baseline toxin effects were evaluated 2-23 days following the first injection, using the testing procedures below: […]

[5] = test system: peripheral neurotoxicity induced by the vinca alkaloid vincristine; assay: Motor evaluation: ability to exit a circle 30 cm in diameter within 20 seconds, vincristine-treated rats; format: in vivo; conditions: vincristine 0.175 mg/kg i.p. alone vs control
Description: as §1, §2
Motor examination was performed on days 6, 9, 13 and 24 after the initiation of the vincristine injections. Rats were examined after vincristine injection, with the use of a motor disability scale. […]
Animals were assessed based on their failure to walk out of a circle 30 cm in diameter within 20 seconds.

[6] = test system: peripheral neurotoxicity induced by the vinca alkaloid vincristine; assay: Olfactory discrimination test in vincristine-treated rats; format: in vivo; conditions: vincristine alone (group 2)
Description: Treatments took place daily (5 days a week) for ˜3 weeks (20 days) with the dosage calculated on daily body weight. NAP was administered subcutaneously at the same time as the vincristine was administered intraperitoneally, in the dosage and the amount indicated in the schedule above. After a week cessation of treatment a final boost of vincristine was given i.p. daily for three days and NAP at 25 microgram/kg was given intranasally to group number 4 only. The intranasal formulation followed the previous experiment (Alcalay et al., infra). An olfactory discrimination test was performed on each of the three days of NAP treatment during the final boost period. (Macknin et al., Brain Res. 1000, 174-78 (2004)) The odors tested were 1) Deionized water (ddw) and 2) Scented extracts, i.e., vanilla/almond.
Overall the experiment included 3 odors (water and two scented extracts) each encompassing 3 trials of 2 minutes. New dipped tip was introduced at the beginning of each trial for the different scents.
Thirty minutes before the testing the subjects were housed in separate cages and a cotton tip dipped in water was placed hanging into the cage. During these 30 minutes the animal was acclimatized to the tip and the cage. Thereafter, the cotton tip was dipped in the desired scent and placed hanging from the top of the cage. […]

tubulin = conditions: cited from earlier work
[7] = test system: neurons of the central nervous system; conditions: in-vitro assays and in vivo disease models; cited from earlier work

CC[C@H](C)[C@H](NC(=O)[C@H](CO)NC(=O)[C@@H](NC(=O)[C@@H]1CCCN1C(=O)[C@H](C)NC(=O)[C@@H](N)CC(N)=O)C(C)C)C(=O)N1CCC[C@H]1C(=O)N[C@@H](CCC(N)=O)C(=O)O [NAP, Asn-Ala-Pro-Val-Ser-Ile-Pro-Gln]
Frequency of grade II/III leucopenia [1]: occurs at a lower frequency than in the control group

CC(=O)O[C@H]1C(=O)[C@@]2(C)[C@H]([C@H](OC(=O)c3ccccc3)[C@]3(O)C[C@H](OC(=O)[C@H](O)[C@@H](NC(=O)c4ccccc4)c4ccccc4)C(C)=C1C3(C)C)[C@]1(OC(C)=O)CO[C@@H]1C[C@@H]2O [taxol]
Rota-rod test: neuromuscular function, toxin alone [2]: a significant effect on neuromuscular function
Plantar test: thermal hyperalgesia, toxin alone ([3]; Experiment 1: rats, taxol cumulative 5.6 mg/kg i.p., after the last taxol injection on day three): exhibited thermal hyperalgesia
Plantar test: thermal hyperalgesia, toxin alone ([3]; Experiment 2: rats, taxol cumulative 9 mg/kg i.p., eight days after the last Taxol injection): exhibited a significant thermal hyperalgesia

CC[C@]1(O)C[C@H]2CN(CCc3c([nH]c4ccccc34)[C@@](C(=O)OC)(c3cc4c(cc3OC)N(C=O)[C@H]3[C@@](O)(C(=O)OC)[C@H](OC(C)=O)[C@]5(CC)C=CCN6CC[C@]43[C@@H]65)C2)C1 [vincristine]
Rota-rod performance, toxin alone vs control [4]: significant difference between the vincristine treated animals and the control animals indicating impairment
Ability to exit a circle 30 cm in diameter within 20 seconds, toxin alone vs control ([5]; P<0.001): significantly reduced
Ability to exit a circle 30 cm in diameter within 20 seconds, toxin alone vs control ([5]; P<0.001, listed as Vincristine): significantly worse as compared to control animals
Time spent with new odors: olfaction capacity, toxin alone [6]: did not show any initial interest in the new smell

SALLRSIPA
Interaction with tubulin (tubulin): interact with tubulin
Neuron survival in response to various insults [7]: keep neurons of the central nervous system alive

B1: ADNP: full length ADNF III, activity-dependent neuroprotective protein (protein, UniProt Q9H2P0 1-1102, looked up)
chain: MFQLPVNNLGSLRKARKTVKKILSDIGLEYCKEHIEDFKQFEPNDFYLKNTTWEDVGLWDPSLTKNQDYRTKPFCCSACPFSSKFFSAYKSHFRNVHSEDFENRILLNCPYCTFNADKKTLETHIKIFHAPNASAPSSSLSTFKDKNKNDGLKPKQADSVEQAVYYCKKCTYRDPLYEIVRKHIYREHFQHVAAPYIAKAGEKSLNGAVPLGSNAREESSIHCKRCLFMPKSYEALVQHVIEDHERIGYQVTAMIGHTNVVVPRSKPLMLIAPKPQDKKSMGLPPRIGSLASGNVRSLPSQQMVNRLSIPKPNLNSTGVNMMSSVHLQQNNYGVKSVGQGYSVGQSMRLGLGGNAPVSIPQQSQSVKQLLPSGNGRSYGLGSEQRSQAPARYSLQSANASSLSSGQLKSPSLSQSQASRVLGQSSSKPAAAATGPPPGNTSSTQKWKICTICNELFPENVYSVHFEKEHKAEKVPAVANYIMKIHNFTSKCLYCNRYLPTDTLLNHMLIHGLSCPYCRSTFNDVEKMAAHMRMVHIDEEMGPKTDSTLSFDLTLQQGSHTNIHLLVTTYNLRDAPAESVAYHAQNNPPVPPKPQPKVQEKADIPVKSSPQAAVPYKKDVGKTLCPLCFSILKGPISDALAHHLRERHQVIQTVHPVEKKLTYKCIHCLGVYTSNMTASTITLHLVHCRGVGKTQNGQDKTNAPSRLNQSPSLAPVKRTYEQMEFPLLKKRKLDDDSDSPSFFEEKPEEPVVLALDPKGHEDDSYEARKSFLTKYFNKQPYPTRREIEKLAASLWLWKSDIASHFSNKRKKCVRDCEKYKPGVLLGFNMKELNKVKHEMDFDAEWLFENHDEKDSRVNASKTADKKLNLGKEDDSSSDSFENLEEESNESGSPFDPVFEVEPKISNDNPEEHVLKVIPEDASESEEKLDQKEDGSKYETIHLTEEPTKLMHNASDSEVDQDDVVEWKDGASPSESGPGSQQVSDFEDNTCEMKPGTWSDESSQSEDARSSKPAAKKKATMQGDREQLKWKNSSYGKVEGFWSKDQSQWKNASENDERLSNPQIEWQNSTIDSEDGEQFDNMTDGVAEPMHGSLAGVKLSSQQA
modifications: full-length
Interaction with tubulin (tubulin): interact with tubulin
